For assay [1], the system named is CT-26 cells derived from mouse colon cancer. The assay is described as follows: Antitumor effect on transplanted CT-26 tumors in cancer-bearing mice (tumor volume, remission). Format: in vivo. To be noted: Study 1, 21 days after treatment, single dose; for mean tumor volume: mean of five animals, BLM 6.5 μg/tumor intratumoral, CDDP 0.2 mg/body i.p.
Method: CT-26 cells derived from mouse colon cancer (5×10^6 cells) were intradermally transplanted to the backs of 8-week-old male BALB/cAnNCrj mice to yield cancer-bearing mice. Five days after the transplantation, 0.2 mg/body Platocin Injection (cisplatin, CDDP) was intraperitoneally administered to animals wherein the tumor diameter (major diameter) had reached about 5 mm. Following this administration, HVJ-E containing or not containing an anticancer drug (bleomycin hydrochloride [BLM]: Nippon Kayaku Co., Ltd.) and the like were administered into the tumor in a single dose (on the day after administration of cisplatin) or in multiple doses (3 times: 1, 5, and 8 days after administration of cisplatin). Tumor diameters, survival curves, and immune reactions in the tumor tissue were evaluated.
(Study 1) The groups described below were established, and the antitumor effects of treatment for transplanted tumors was evaluated.
For modeling, (1) a control group, (2) an HVJ-E group, (3) a BLM-alone group, (4) an HVJ-E/BLM group, (5) a CDDP-alone group, and (6) a CDDP HVJ-E/BLM single dosing group were established; tumor volumes were measured 21 days after each treatment, and the influence on the antitumor effect was examined.
(Study 2) In an attempt to further enhance the antitumor effect of the (single) treatment by single dosing of CDDP HVJ-E/BLM given in Study 1, HVJ-E/BLM was administered in multiple doses (3 times) (Study 2-1). […] (Study 2-1)
Tumor volumes were examined 21 days after treatment for (1) a control group, (2) a CDDP HVJ-E/BLM single dosing group (single treatment), and (3) a CDDP HVJ-E/BLM 3 dosing group.
After completion of the quarantine and habituation, animals were shaven with clippers. The tumor cell suspension at 100 μL/site (5×10^6 cells/body) was administered intradermally to the backs of 59 mice using a disposable syringe and injection needle (26 G). On the day following the administration, the same administration was performed on 57 animals (non-recipient animals).
Tumor diameters (major diameter, minor diameter) were measured 5 days after transplantation (not measured after grouping). Five days later, animals having a tumor diameter (major diameter) of about 5 mm were grouped by stratified randomization to obtain a nearly uniform distribution of mean tumor diameters (major diameters).
For the CDDP administration group, a single-dose intraperitoneal administration (1000 μl) was performed using a disposable injection syringe and injection needle. […]
The day of administration was taken as Day 0 after administration. On Days 3, 6, 9, 12, 15, 18, and 21 after administration, all animals had their tumor diameters measured, and tumor volume (major diameter×minor diameter×minor diameter÷2) was calculated.
Assay [2] relates to CT-26 tumor tissue. Briefly: HE and CD-4/CD-8 immunohistological staining of tumor tissue. Format: in vivo, mouse. To be noted: 9 days after CDDP administration; single dosing. From the text:
(Study 5) To evaluate the infiltration of CD-4, CD-8, neutrophils, macrophage and the like in the tumor tissues examined in the study of the antitumor effect of the antitumor immunity, the following test groups were established, and tumor tissues were extirpated 9 days after administration of CDDP and subjected to immunohistological staining.
2-9) The tumor tissue was frozen in liquid nitrogen in preparation for staining the tumor tissue. The tumor tissue was cut into sections 8 μm in thickness using a cryostat. The tissue sections were fixed in −20° C. cold acetone for 15 minutes. After the sections were washed with water, endogenous avidin-biotin blocking was performed, and the sections were washed with water. The sample was reacted with normal rabbit serum and 50-fold diluted primary antibody [anti-mouse CD8a rat antibody (Ly-Z; Pharmingen) or anti-mouse CD4a rat antibody (L3T4; Pharmingen)] at 4° C. overnight. After the sample was washed with 7.5 mM Tris buffer solution (pH 7.5), it was reacted with 300-fold diluted anti-rat biotin-labeled rabbit Ig (DAKO) for 30 minutes. After the sample was washed with 9.5 mM Tris buffer solution (pH 7.5), it was reacted with 100-fold diluted streptoavidin for 30 minutes. After the sample was washed with 11.5 mM Tris buffer solution (pH 7.5), a color was developed with Fast Red. […]

Assay [3] has as its system MB49 cells. The assay is described as follows: Concurrent administration of MB49 cells, HVJ-E and ADM into the bladder. Format: in vivo, mouse. To be noted: two weeks. The protocol: Three 6-week-old female C57BL/6Cr Slc mice per group were anesthetized by administering a mixture of 90 μl of ketamine (50 mg) and 10 μl of xylazine (2% solution) to the left femoral muscle, a 24G catheter was inserted into the bladder, 100 μl of each of the following sample solutions was administered using a 1-ml syringe, and the catheter was indwelled for 1 hour.
The groups established are as follows:
The number of MB49 cells administered was 5×10^6 cells. After adjustment to a final volume of 100 μl, each solution was administered into the bladder. Two weeks later, the bladder was extirpated, and sections were prepared and stained with HE.

Assay [4] concerns MB49 (transitional epithelial cancer) cells. The assay is described as follows: Adriamycin sensitivity of MB49 cells, WST-8 assay. Format: cell-based. To be noted: 48 hours. The protocol: After 48 hours of cultivation, the supernatant was removed by WST-8 assay, 100 μl of a cell counting kit solution, previously diluted 10 fold with RPMI medium, was added, and the plate was allowed to stand at 37° C. for 1.5 hours. Absorbance at 450 nm was determined using a microplate reader. Assuming the absorbance of a sample of MB49 cells only to be 100% survival rate, the survival rates at various concentrations were calculated.
Background: Tetrazolium dyes change colour on reduction, which living cells bring about.

The test system of assay [5] is MB49 cells. The assay is described as follows: MB49 cell-inoculated mouse model (intradermal), tumor volume. Format: in vivo. From the text: This experimental model can be prepared in accordance with, for example, a method described in Anticancer Res., 2004, 24(4):2225-30, and the like.
In assay [6] the test system is CT-26 cells. Briefly: CTL assay using radiolabeled chromium with splenocytes of treated mice. The note with it: E/T ratio 80; CT-26 inoculated mice; HVJ-E/BLM 3 dosing where given. Format: cell-based, mouse. The protocol: To determine whether or not the antitumor immunity effect observed in the previous study was due to the induction of CT26 cell-specific antitumor immunity, splenocytes recovered from animals were stimulated with CT26 cells, and a CTL assay using radiolabeled chromium was performed to determine whether or not CT26-specific antitumor immunity had been induced.
In this study, (1) a CT-26 cell non-inoculation group, (2) a CT-26 cell-alone inoculation group, (3) a CT-26 cell inoculation+CDDP administration group, and (4) a CT-26 cell inoculation+CDDP+HVJ-E/BLM 3 dosing group were established and tested.
The spleen was extirpated from each anesthetized animal and recovered in a Petri dish (6 cm in diameter) containing 3 ml of RPMI solution. The spleen tissue was squashed between the frosted portions of two sterile glass slides, splenocytes were separated from the coat to the maximum possible extent, and the debris was removed through meshes. After 7 ml of PRMI solution was added, the cells were centrifuged at 1200 rpm for 10 minutes, and the supernatant was removed. […] The cells obtained from this operation were counted. […]
Actual CTL assay was performed with the ratio of effector cells (E) and target cells (T), E/T ratio, set at 80, […] 40, 20, 10, and 5. In this operation, 100 μl of target cells (1×10^5 cells/ml) were added to make a total quantity of 200 μl. […]

Assay [7] relates to CT-26 mouse colon cancer cells. The assay is described as follows: Antitumor effect of cisplatin (CDDP) and HVJ-E in combination, CT-26 tumors. Format: in vivo. To be noted: HVJ-E alone, CDDP 1 mg/kg, physiological saline. As to the method: CT-26 mouse colon cancer cells were intradermally inoculated into the backs of BALB/c mice at 5×10^6 cells/head. Five days after the inoculation, treatment with HVJ-E and CDDP was started in the following animal groups. For each animal group, tumor volume was calculated as major diameter×minor diameter×minor diameter/2.
• #1: Physiological saline group • #2: HVJ-E alone • #3: CDDP 1 mg/kg • #4: CDDP 3 mg/kg • #5: CDDP 1 mg/kg+HVJ-E (5,000 HAU) • #6: CDDP 3 mg/kg+HVJ-E (5,000 HAU) • (n=5 or 6 for each group) (Results)

Results on three molecules are retold here after patent publication US7871765B2, “Composition having antitumor effect” (priority 2004, dated 2011).

bleomycin hydrochloride [BLM]: in assay [1], the mean tumor volume is given as 1303 mm^3 and the “mean tumor volume relative to control group as 100%” value is 80.0%. The “pathological findings in tumor tissue (HE staining)” value in assay [2] is “Generally similar findings”.
With `COc1cccc2c1C(=O)c1c(O)c3c(c(O)c1C2=O)C[C@@](O)(C(=O)CO)C[C@@H]3O[C@H]1C[C@H](N)[C@H](O)[C@H](C)O1` [ADM, adriamycin], the “infiltration of MB49 cells into the bladder” value in assay [3] (ADM 0.008 μg/ml, with or without HVJ-E 5000 HAU (Groups 1, 2)) is given as “all animals showed evidence of infiltration of MB49 cells”. For the same molecule, in assay [3] (Group 3: ADM 1 μg/ml), the “animals in which infiltration of MB49 cells could not be prevented” value amounted to 80%. Also, the survival rate in assay [4] (ADM 0.004 μg/ml) worked out at 60.1%; in assay [4] (ADM 0.008 μg/ml), 54%; in assay [4] (ADM 0.063 μg/ml), 34.9%; in assay [4] (ADM 0.125 μg/ml), 27.6%; in assay [4] (ADM 0.25 μg/ml), 22.6%; in assay [4] (ADM 0.5 μg/ml) it was 17.2%. Further, the survival rate turned out to be 11.7% in assay [4] (ADM 1 μg/ml) and 6.7% in assay [4] (ADM 2 μg/ml). The LD50 concentration in assay [4] (MB49 cells, WST-8) worked out at 0.008 µg/mL. Moreover, the LD90 concentration in assay [4] (MB49 cells, WST-8) stood at 1 µg/mL. Moreover, the tumor suppressing effect entry in assay [5] (ADM alone (20 or 100 μg)) was “a tumor suppressing effect was observed”. Besides, the tumor eradication entry in assay [5] (ADM alone (20 or 100 μg), tumor diameter 7-8 mm) is “eradication was not observed”. Moreover, the tumor volume in assay [5] (G2: ADM 20 μg x3 into tumor, Day 0) worked out at 128.4 mm^3; in assay [5] (G2: ADM 20 μg x3 into tumor, Day 5), 303.2 mm^3; in assay [5] (G2: ADM 20 μg x3 into tumor, Day 7), 330 mm^3; in assay [5] (G2: ADM 20 μg x3 into tumor, Day 9), 324.9 mm^3; in assay [5] (G2: ADM 20 μg x3 into tumor, Day 12), 331.74 mm^3; in assay [5] (G2: ADM 20 μg x3 into tumor, Day 15), 443.36 mm^3. Also, the tumor volume in assay [5] (G2: ADM 20 μg x3 into tumor, Day 19) worked out at 773.88 mm^3; in assay [5] (G2: ADM 20 μg x3 into tumor, Day 21), 1022.48 mm^3; in assay [5] (G3: ADM 100 μg x3 into tumor, Day 0) it was 119 mm^3; in assay [5] (G3: ADM 100 μg x3 into tumor, Day 5), 285.8 mm^3; in assay [5] (G3: ADM 100 μg x3 into tumor, Day 7), 291.2 mm^3; in assay [5] (G3: ADM 100 μg x3 into tumor, Day 9), 333.9 mm^3. Besides, the tumor volume in assay [5] (G3: ADM 100 μg x3 into tumor, Day 12) is on record as 426.88 mm^3; in assay [5] (G3: ADM 100 μg x3 into tumor, Day 15), 450.76 mm^3; in assay [5] (G3: ADM 100 μg x3 into tumor, Day 19), 989.52 mm^3; in assay [5] (G3: ADM 100 μg x3 into tumor, Day 21) it was 1220.44 mm^3.
On to `[NH2][Pt]([NH2])([Cl])[Cl]` [CDDP, cisplatin], for which the “% specific Cr release” value in assay [6] was 12.9%. The “order of regression effect” value in assay [7] (cell-derived HVJ-E study) is “greater in the order of the physiological saline group, HVJ-E-alone administration group, and CDDP 1 mg/kg administration group”. For the same molecule, the “tumor volume compared among groups” value in assay [7] (egg-derived HVJ-E study) was “no major difference was observed”. In assay [1], the mean tumor volume came to 387 mm^3 and the “mean tumor volume relative to control group as 100%” value is 23.2%. Further, the “pathological findings in tumor tissue (HE staining)” value in assay [2] is “tumor cell necrotic signs were observed over a wide range of the tumor tissue”.
